The results in this text go back to patent US20240025910A1, “BRAIN-MIGRATING TUMOR THERAPEUTIC AGENT CONTAINING FUSED PYRIMIDINE COMPOUND AS ACTIVE INGREDIENT” (TAIHO PHARMACEUTICAL CO., LTD., priority 2020, published 2024).

The structures appear in SMILES notation.

The nature of data set [1]: Evaluation of brain penetration property (Kp, Kp,uu) after single oral dose. The class given is in vivo. As to conditions: BALB/cAJcl-nu/nu; for Kp at 1 h: mouse, ratio of compound concentrations in brain/plasma, mice, 1 hour after administration, Kp of 0.1 or more judged brain penetrable; for Kp uu at 1 h: ratio of unbound compound concentrations in brain/plasma, using mouse plasma and brain protein unbound ratios of Test Example 1, mice, 0.3 or more judged excellent. Here is the method:
Compounds shown in Tables 1 to 4 were added to mouse plasma at a final concentration of 1 μmol/L. The resultant compound-added mouse plasma was added to the donor side of an equilibrium dialysis device (HTDialysis) in which an equilibrium dialysis membrane was set. An equal amount of PBS was added to the receiver side of the device, and after incubation in a 10% CO2 incubator for 6 hours, the compounds on the donor side and the receiver side were detected with the LC-MS/MS. The unbound ratio of each compound to plasma protein was calculated from the ratio of the compound peak area of the receiver side to that of the donor side.
The unbound ratio of each compound to brain protein was calculated in the same manner as above except that: the compound was added to a mouse brain homogenate instead of the mouse plasma; and a dilution ratio was taken into consideration in the calculation of the unbound ratio. In this case, the mouse brain homogenate was obtained by adding a 3-fold amount of PBS to the mouse brain, and then homogenizing the mixture through use of an ultrasonic homogenizer.
The compounds shown in Tables 1 to 4 were dissolved or suspended in 0.5% HPMC, 0.1N hydrochloric acid, and orally administered in a single dose to BALB/cAJcl-nu/nu mice (CLEA Japan, Inc.) untreated, or subcutaneously implanted with TT cells, or subcutaneously implanted with the BaF3/KIF5B-RET_RFP cell line. […] Thus, blood and brain samples were obtained. The obtained blood sample was centrifuged to obtain a plasma sample. A 3-fold amount of water was added to the obtained brain sample, and then the mixture was homogenized through use of an ultrasonic homogenizer to obtain a brain homogenate.
Compound concentrations in the obtained plasma and in the brain homogenate were measured with the LC-MS/MS, and the compound concentration in the brain homogenate was multiplied by a factor of 4 to calculate a compound concentration in the brain. A Kp value was calculated from the ratio of the compound concentrations in the brain/plasma. Unbound compound concentrations in the plasma and in the brain were calculated from the plasma protein unbound ratio and brain protein unbound ratio of each compound determined in Test Example 1, and a Kp,uu value was calculated from the ratio of the unbound compound concentrations in the brain/plasma. A brain penetration property was evaluated on the basis of the calculated Kp value and Kp,uu value (Tables 1 to 4). Specifically, a compound showing a Kp value of 0.1 or more was judged to have a brain penetration property, and a compound showing a Kp,uu value of 0.3 or more was judged to have an excellent brain penetration property (Varadharajan, S., et al. (2015) J Pharm Sci 104, 1197-1206). In Table 4, “N/A” in the column “Kp,uu value” means that the value was unmeasured.

Data set [2] deals with NIH/3T3_CCDC6-RET cells implanted in the brain. In words: Evaluation of drug efficacy in brain tumor implantation model. As to conditions: oral 50 mg/kg/day, twice a day for 16 consecutive days from Day 5; NIH/3T3_CCDC6-RET brain implant, nude mice. The class given is in vivo, nude mice (BALB/cAJcl-nu/nu).
Method: Antitumor evaluation was performed in models with tumors implanted in the brain.
The growth inhibitory effect was confirmed by using NIH/3T3 cells (NIH/3T3_CCDC6-RET cells) in which luciferase and CCDC6-RET fusion protein were forced to be expressed for gene transfer. Six-week-old male nude mice (BALB/cAJcl-nu/nu, CLEA Japan, Inc.) were fixed on a brain stereotaxic instrument, and 2.5×10^4 cells per mice were implanted at a site 0.5 mm anteriorly from the bregma, 2 to 2.2 mm to the right and 3.5 mm deep. The day of implantation was defined as Day 0, luciferin (150 mg/kg) was administered intraperitoneally on Day 4, and intensity of luminescence (photons/sec) was measured using an IVIS Imaging System (Lumina II, PerkinElmer).
From the next day (Day 5), compounds were administered twice a day for 16 consecutive days. Each compound was suspended in 0.5% HPMC/0.1N hydrochloric acid and administered orally at 50 mg/kg/day. To confirm tumor growth, intensity of luminescence was measured at intervals of 3 or 4 days by the method described above.
However, since a humane endpoint due to tumor growth was applied to the drug non-administration group (control group), statistical evaluation was performed by Dunnett's test using the measurement value on Day 14.

Take `COCc1ccc(NC(=O)c2c(C#Cc3cn(C)nc3C)n(C3(C)CC3)c3ncnc(N)c23)cc1` [Example 1, 4-amino-6-[2-(1,3-dimethyl-1H-pyrazol-4-yl)ethynyl]-N-[4-(methoxymethyl)phenyl]-7-(1-methylcyclopropyl)-7H-pyrrolo[2,3-d]pyrimidine-5-carboxamide]: in data set [1], the Kp at 1 h turned out to be 0.425 and the Kp uu at 1 h came to 0.425.
For `COCc1ccc(NC(=O)c2c(C#CCN3CCOCC3)n(C3(C)CC3)c3ncnc(N)c23)cc1` [Example 2, 4-amino-N-[4-(methoxymethyl)phenyl]-7-(1-methylcyclopropyl)-6-(3-morpholinoprop-1-yn-1-yl)-7H-pyrrolo[2,3-d]pyrimidine-5-carboxamide], in data set [1], the concentration ratio (Kp) at 1 h stood at 1.71 and the Kp uu at 1 h amounted to 1.8. Also, in data set [2], the “inhibitory effect on growth of tumors implanted in the brain (intensity of luminescence)” value is on record as “inhibitory effect on the growth of the implanted tumors”.
As to `COCc1ccc(NC(=O)c2c(C#CC3CCN(C)CC3)n(C3(C)CC3)c3ncnc(N)c23)cc1` [Example 3, 4-amino-N-[4-(methoxymethyl)phenyl]-7-(1-methylcyclopropyl)-6-[(1-methylpiperidin-4-yl)ethynyl]-7H-pyrrolo[2,3-d]pyrimidine-5-carboxamide], in data set [1], the Kp at 1 h came out at 0.772 and the Kp uu at 1 h was 0.22.
For `COCc1ccc(NC(=O)c2c(C#Cc3cnn(C)c3)n(C3(C)CC3)c3ncnc(N)c23)cc1` [Example 4, 4-amino-N-[4-(methoxymethyl)phenyl]-6-((1-methyl-1H-pyrazol-4-yl)ethynyl)-7-(1-methylcyclopropyl)-7H-pyrrolo[2,3-d]pyrimidine-5-carboxamide], in that order: 1.44 and 1.2.
The matching figures for `CC#Cc1c(C(=O)Nc2ccc(COC)cc2)c2c(N)ncnc2n1C1(C)CC1` [Example 5, 4-amino-N-[4-(methoxymethyl)phenyl]-7-(1-methylcyclopropyl)-6-(prop-1-yn-1-yl)-7H-pyrrolo[2,3-d]pyrimidine-5-carboxamide]: 1.56 and 0.681.
For `COCc1ccc(NC(=O)c2c(C#CCN(C)C)n(C3(C)CC3)c3ncnc(N)c23)cc1` [Example 6, 4-amino-6-[3-(dimethylamino)prop-1-yn-1-yl]-N-[4-(methoxymethyl)phenyl]-7-(1-methylcyclopropyl)-7H-pyrrolo[2,3-d]pyrimidine-5-carboxamide], in that order: 0.969 and 0.922.
`COCc1ccc(NC(=O)c2c(OC[C@H]3CCCO3)n(C3(C)CC3)c3ncnc(N)c23)cc1` [Example 7, (R)-4-amino-N-[4-(methoxymethyl)phenyl]-7-(1-methylcyclopropyl)-6-((tetrahydrofuran-2-yl)methoxy)-7H-pyrrolo[2,3-d]pyrimidine-5-carboxamide]: in data set [1], the Kp at 1 h is 1.63 and the Kp uu at 1 h was 0.608.
Turning to `COCc1ccc(NC(=O)c2cn(C3(C)CC3)c3ncnc(N)c23)cc1` [Example 8, 4-amino-N-[4-(methoxymethyl)phenyl]-7-(1-methylcyclopropyl)-7H-pyrrolo[2,3-d]pyrimidine-5-carboxamide], in data set [1], the Kp at 1 h is 0.175 and the Kp uu at 1 h turned out to be 0.1.
The matching figures for `CCOc1c(C(=O)Nc2ccc(COC)cc2)c2c(N)ncnc2n1C1(C)CC1` [Example 9, 4-amino-6-ethoxy-N-[4-(methoxymethyl)phenyl]-7-(1-methylcyclopropyl)-7H-pyrrolo[2,3-d]pyrimidine-5-carboxamide]: 2.12 and 0.914.
The matching figures for `COCc1ccc(NC(=O)c2c(C#Cc3cncn3C)n(C3(C)CC3)c3ncnc(N)c23)cc1` [Example 10, 4-amino-N-(4-(methoxymethyl)phenyl)-6-((1-methyl-1H-imidazol-5-yl)ethynyl)-7-(1-methylcyclopropyl)-7H-pyrrolo[2,3-d]pyrimidine-5-carboxamide]: 0.143 and 0.056.
For `COCc1ccc(NC(=O)c2c(C#CCN3CCCCC3)n(C3(C)CC3)c3ncnc(N)c23)cc1` [Example 11, 4-amino-N-[4-(methoxymethyl)phenyl]-7-(1-methylcyclopropyl)-6-(3-(piperidin-1-yl)prop-1-yn-1-yl)-7H-pyrrolo[2,3-d]pyrimidine-5-carboxamide], the concentration ratio (Kp) at 1 h in data set [1] was determined as 1.36.
Consider `COCc1ccc(NC(=O)c2c(C#CCN3CCCC3)n(C3(C)CC3)c3ncnc(N)c23)cc1` [Example 12, 4-amino-N-[4-(methoxymethyl)phenyl]-7-(1-methylcyclopropyl)-6-(3-(pyrrolidin-1-yl)prop-1-yn-1-yl)-7H-pyrrolo[2,3-d]pyrimidine-5-carboxamide], for which, in data set [1], the Kp at 1 h is 1.02 and the Kp uu at 1 h is 1.45.
The matching figures for `COCc1ccc(NC(=O)c2c(C#CC3CCOCC3)n(C3(C)CC3)c3ncnc(N)c23)cc1` [Example 13, 4-amino-N-[4-(methoxymethyl)phenyl]-7-(1-methylcyclopropyl)-6-((tetrahydro-2H-pyran-4-yl)ethynyl)-7H-pyrrolo[2,3-d]pyrimidine-5-carboxamide]: 2.08 and 0.891.
`COCc1ccc(NC(=O)c2c(C#CCC(C)(C)O)n(C3(C)CC3)c3ncnc(N)c23)cc1` [Example 14, 4-amino-6-(4-hydroxy-4-methylpent-1-yn-1-yl)-N-[4-(methoxymethyl)phenyl]-7-(1-methylcyclopropyl)-7H-pyrrolo[2,3-d]pyrimidine-5-carboxamide]: in data set [1], the Kp at 1 h stood at 0.352 and the Kp uu at 1 h was determined as 0.242.
The matching figures for `COCc1ccc(NC(=O)c2c(C#CCC3CCOCC3)n(C3(C)CC3)c3ncnc(N)c23)cc1` [Example 15, 4-amino-N-[4-(methoxymethyl)phenyl]-7-(1-methylcyclopropyl)-6-[3-(tetrahydro-2H-pyran-4-yl)prop-1-yn-1-yl]-7H-pyrrolo[2,3-d]pyrimidine-5-carboxamide]: 0.74 and 0.37.
For `COCc1ccc(NC(=O)c2c(C#Cc3cccnc3)n(C3(C)CC3)c3ncnc(N)c23)cc1` [Example 16, 4-amino-N-[4-(methoxymethyl)phenyl]-7-(1-methylcyclopropyl)-6-(pyridin-3-ylethynyl)-7H-pyrrolo[2,3-d]pyrimidine-5-carboxamide], in that order: 1.09 and 0.653.
The matching figures for `COCc1ccc(NC(=O)c2c(C#Cc3ccc(N)nc3)n(C3(C)CC3)c3ncnc(N)c23)cc1` [Example 17, 4-amino-6-[(6-aminopyridin-3-yl)ethynyl]-N-[4-(methoxymethyl)phenyl]-7-(1-methylcyclopropyl)-7H-pyrrolo[2,3-d]pyrimidine-5-carboxamide]: 0.129 and 0.052.
`COCc1ccc(NC(=O)c2c(C#CCN3CCSCC3)n(C3(C)CC3)c3ncnc(N)c23)cc1` [Example 18, 4-amino-N-[4-(methoxymethyl)phenyl]-7-(1-methylcyclopropyl)-6-(3-thiomorpholinoprop-1-yn-1-yl)-7H-pyrrolo[2,3-d]pyrimidine-5-carboxamide]: in data set [1], the Kp at 1 h came to 0.685 and the Kp uu at 1 h was found to be 0.443.
Take `Cc1cc(NC(=O)c2cn(C(C)(C)C)c3ncnc(N)c23)n[nH]1` [compound 1, reference compound]: in data set [1], the concentration ratio (Kp) at 1 h stood at 0.056.
`Cc1cc(NC(=O)c2cn(C3(C)CC3)c3ncnc(N)c23)n[nH]1` [compound 2, reference compound]: in data set [1], the partition ratio (Kp) at 1 h worked out at 0.022 and the Kp uu at 1 h came out at 0.005.
Take `Cc1cc(NC(=O)c2c(C#Cc3cnn(C)c3)n(C3(C)CC3)c3ncnc(N)c23)[nH]n1` [compound 3, reference compound]: the concentration ratio (Kp) at 1 h in data set [1] was found to be 0.076.

Usually Kp stands for the ratio of the level in a tissue or fluid to that in plasma or blood.
